Values of other authors in patent publication US20070066602A1, “Process for Making Olanzapine Form I” (priority 2005, published 2007).

Key:
[1] = at pH 6.8; free base, crystalline solid

Structure (SMILES) | solubility in water (qualitative) | solubility [1]
Cc1cc2c(s1)Nc1ccccc1N=C2N1CCN(C)CC1.O=C(O)c1ccccc1 [Olanzapine benzoate] | sparingly soluble in water | 
Cc1cc2c(s1)Nc1ccccc1N=C2N1CCN(C)CC1 [olanzapine, Olanzapine] | insoluble in water | about 0.02 mg/ml
